# In patent publication US11246896B2, “Tumor-specific adenovirus vectors and therapeutic uses” (priority 2015, dated 2022):
# Tested on: RIN, MIN, β-TC1 (INSM1+ insulinomas)
# Test: Cell survival assay (MTS), INSM1-positive insulinoma cells
# Format: cell-based, rat, mouse
# Conditions: 200 μM GCV, no virus, RTC-1 cells
# Protocol: FIGS. 13A-13D illustrate that the oncolytic virus in combination with Ad-INSM1p-HSV-tk increased efficacy of tumor cell killing. An MTS colorimetric assay was conducted to measure the cell survival with 3 insulinoma cell lines: RIN, MIN, β-TC1 (INSM1^+ insulinomas), and Panc-1 (INSM1^− pancreatic epithelioid carcinoma).
# FIG. 13D is a graph illustrating cells treated with a combination of Ad-IMSM1p-HSV-tk and Ad-INSM1p-E1A-HSV-tk viruses. Cells were first treated with virus ranging from 0-100 MOI. […] Cell survival was measured by MTS colorimetric analysis at 490 nm. (n=6). […]
# FIG. 14D is a graph illustrating cells treated with a combination of Ad-IMSM1p-HSV-tk and Ad-INSM1p-E1A-HSV-tk viruses. […] Cell survival was measured by MTS colorimetric analysis at 490 nm. […]
# Cell survival assay. […] Afterwards, cell survival was assessed using […] 96® AQueous One Solution Cell Proliferation Assay (Promega, cat. no. G3582) and read at 490 nm on a Bio-Tek Synergy-HT Microplate Reader. Results were plotted as relative absorbance (relative to control sample with no virus) against increasing viral MOI. Samples were conducted in six wells each and statistical significance was determined using the students T-test with a threshold of p<0.05.
# For a second experiment, the same viral constructs were used to infect cancer cells at a constant 50 MOI. […] After the treatment period, cell survival was assessed using […] […]
compound,measurement,value
"Nc1nc(O)c2ncn(COC(CO)CO)c2n1 [GCV, 2-amino-9-{[(1,3-dihydroxypropan-2-yl)oxy]methyl}-6,9-dihydro-3H-purin-6-one]",cell survival with GCV in the absence of adenovirus,decrease in survival
